Experimental data taken from patent US20120122860A1, “SOLID FORMS OF SULFONAMIDES AND AMINO ACIDS” (Plexxikon, Inc., priority 2009, published 2012).

Assays:
B-Raf V600E = B-Raf V600E (Homo sapiens, UniProt P15056, V600E); assay: Kinase activity assay, B-Raf V600E; type: biochemical; conditions: read-out: activity toward kinase B-Raf V600E, IC50
B-Raf = B-Raf (Homo sapiens, UniProt P15056); assay: Kinase activity assay, B-Raf; type: biochemical; conditions: read-out: activity toward kinase B-Raf, IC50
Src = Src (Homo sapiens, UniProt P12931); assay: Kinase activity assay, Src
Kit = Kit (Homo sapiens, UniProt P10721); assay: Kinase activity assay, Kit
C-Raf = C-Raf (Homo sapiens, UniProt P04049); assay: Kinase activity assay, C-Raf
TEC = target: T1, TEC (Homo sapiens, UniProt P42680); assay: Kinase activity assay, TEC
T1 sequence (P42680 1-631): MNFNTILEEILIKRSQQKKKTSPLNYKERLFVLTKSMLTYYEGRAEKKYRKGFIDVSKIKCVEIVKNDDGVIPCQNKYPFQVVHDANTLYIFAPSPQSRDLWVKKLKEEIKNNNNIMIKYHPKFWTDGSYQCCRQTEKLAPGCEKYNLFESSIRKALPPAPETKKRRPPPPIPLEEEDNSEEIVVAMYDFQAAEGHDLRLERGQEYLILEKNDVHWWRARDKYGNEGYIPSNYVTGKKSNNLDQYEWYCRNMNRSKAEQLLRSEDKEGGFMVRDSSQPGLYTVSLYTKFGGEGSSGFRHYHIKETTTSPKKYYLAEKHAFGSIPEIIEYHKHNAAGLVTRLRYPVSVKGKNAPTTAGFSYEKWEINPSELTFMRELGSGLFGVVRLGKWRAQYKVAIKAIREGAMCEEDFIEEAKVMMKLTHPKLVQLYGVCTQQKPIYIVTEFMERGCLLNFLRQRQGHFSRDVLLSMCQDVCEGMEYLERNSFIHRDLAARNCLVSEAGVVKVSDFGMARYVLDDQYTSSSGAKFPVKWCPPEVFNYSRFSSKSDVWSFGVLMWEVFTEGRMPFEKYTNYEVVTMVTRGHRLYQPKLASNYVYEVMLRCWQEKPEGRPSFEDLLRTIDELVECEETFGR

Kdr = Kdr (Homo sapiens, UniProt P35968); assay: Kinase activity assay, Kdr
Btk = Btk (Homo sapiens, UniProt Q06187); assay: Kinase activity assay, Btk
Fms = Fms (Homo sapiens, UniProt P07333); assay: Kinase activity assay, Fms
A-Raf = target: T2, A-Raf (Homo sapiens, UniProt P10398); assay: Kinase activity assay, A-Raf
T2 sequence (P10398 1-606): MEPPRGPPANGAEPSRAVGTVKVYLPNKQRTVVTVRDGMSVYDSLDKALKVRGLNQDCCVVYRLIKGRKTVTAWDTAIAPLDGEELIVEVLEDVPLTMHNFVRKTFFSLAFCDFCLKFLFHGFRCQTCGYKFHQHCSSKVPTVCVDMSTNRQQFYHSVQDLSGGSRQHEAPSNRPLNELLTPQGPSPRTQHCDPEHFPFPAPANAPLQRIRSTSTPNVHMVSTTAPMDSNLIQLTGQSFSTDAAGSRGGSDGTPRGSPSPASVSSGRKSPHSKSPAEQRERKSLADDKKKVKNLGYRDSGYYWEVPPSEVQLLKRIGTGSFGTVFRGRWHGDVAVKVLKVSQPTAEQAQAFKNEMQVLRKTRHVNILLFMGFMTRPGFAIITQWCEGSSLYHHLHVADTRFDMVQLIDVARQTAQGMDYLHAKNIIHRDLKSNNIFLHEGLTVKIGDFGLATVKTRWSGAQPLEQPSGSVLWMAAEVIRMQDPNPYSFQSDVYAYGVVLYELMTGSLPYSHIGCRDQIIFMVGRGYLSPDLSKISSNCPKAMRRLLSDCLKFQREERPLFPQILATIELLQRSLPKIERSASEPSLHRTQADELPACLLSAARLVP

MAP4K4 = MAP4K4 (Homo sapiens, UniProt O95819); assay: Kinase activity assay, MAP4K4

Measured: IC50

Sequence of Src (P12931 whole entry): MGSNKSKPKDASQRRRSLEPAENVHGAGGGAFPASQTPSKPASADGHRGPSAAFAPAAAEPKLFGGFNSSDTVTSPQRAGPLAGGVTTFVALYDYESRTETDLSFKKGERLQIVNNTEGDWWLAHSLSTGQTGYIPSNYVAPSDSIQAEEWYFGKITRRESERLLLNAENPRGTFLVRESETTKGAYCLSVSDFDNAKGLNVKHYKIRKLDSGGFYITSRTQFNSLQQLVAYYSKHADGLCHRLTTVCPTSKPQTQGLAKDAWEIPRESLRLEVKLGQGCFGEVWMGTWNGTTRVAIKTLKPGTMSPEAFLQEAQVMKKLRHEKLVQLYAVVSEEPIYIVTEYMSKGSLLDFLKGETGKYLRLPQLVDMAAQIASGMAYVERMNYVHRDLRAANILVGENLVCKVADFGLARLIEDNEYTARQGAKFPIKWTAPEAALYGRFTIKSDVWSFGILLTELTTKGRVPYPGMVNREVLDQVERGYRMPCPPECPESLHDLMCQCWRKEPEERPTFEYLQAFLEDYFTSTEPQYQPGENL
Sequence of Kdr (P35968 20-1356): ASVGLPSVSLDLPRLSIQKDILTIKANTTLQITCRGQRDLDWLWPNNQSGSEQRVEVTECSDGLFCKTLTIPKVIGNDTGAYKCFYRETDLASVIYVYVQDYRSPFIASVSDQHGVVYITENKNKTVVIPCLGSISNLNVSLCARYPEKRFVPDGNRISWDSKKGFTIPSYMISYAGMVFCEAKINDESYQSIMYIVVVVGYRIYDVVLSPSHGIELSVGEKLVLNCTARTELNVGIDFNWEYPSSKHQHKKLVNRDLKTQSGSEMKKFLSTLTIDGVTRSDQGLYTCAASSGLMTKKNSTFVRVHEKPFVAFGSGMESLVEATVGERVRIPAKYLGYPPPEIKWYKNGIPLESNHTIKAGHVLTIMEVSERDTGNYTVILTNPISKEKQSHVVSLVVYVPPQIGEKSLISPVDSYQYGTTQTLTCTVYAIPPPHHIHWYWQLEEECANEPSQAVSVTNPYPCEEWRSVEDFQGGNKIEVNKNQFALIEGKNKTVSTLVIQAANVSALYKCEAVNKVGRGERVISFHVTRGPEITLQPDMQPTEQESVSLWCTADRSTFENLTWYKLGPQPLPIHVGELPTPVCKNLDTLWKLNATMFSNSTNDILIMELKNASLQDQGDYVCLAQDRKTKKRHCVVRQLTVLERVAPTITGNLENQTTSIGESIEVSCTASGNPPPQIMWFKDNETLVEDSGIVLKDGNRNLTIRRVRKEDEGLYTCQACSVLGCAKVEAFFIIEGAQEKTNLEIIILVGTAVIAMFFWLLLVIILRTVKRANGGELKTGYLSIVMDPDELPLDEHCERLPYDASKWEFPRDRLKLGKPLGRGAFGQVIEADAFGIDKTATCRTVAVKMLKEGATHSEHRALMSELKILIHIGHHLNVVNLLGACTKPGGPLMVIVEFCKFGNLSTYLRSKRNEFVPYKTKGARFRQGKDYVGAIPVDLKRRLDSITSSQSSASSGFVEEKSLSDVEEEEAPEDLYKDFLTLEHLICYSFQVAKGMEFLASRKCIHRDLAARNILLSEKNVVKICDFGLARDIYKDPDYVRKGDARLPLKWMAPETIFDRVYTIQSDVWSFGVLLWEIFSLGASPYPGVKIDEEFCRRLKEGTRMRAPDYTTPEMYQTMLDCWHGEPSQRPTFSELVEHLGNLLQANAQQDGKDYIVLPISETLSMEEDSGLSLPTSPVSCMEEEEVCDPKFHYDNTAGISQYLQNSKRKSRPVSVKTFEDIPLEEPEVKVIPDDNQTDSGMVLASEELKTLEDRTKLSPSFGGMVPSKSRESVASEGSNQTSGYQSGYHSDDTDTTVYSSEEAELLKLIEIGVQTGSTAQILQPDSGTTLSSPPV
Sequence of C-Raf (P04049 whole entry): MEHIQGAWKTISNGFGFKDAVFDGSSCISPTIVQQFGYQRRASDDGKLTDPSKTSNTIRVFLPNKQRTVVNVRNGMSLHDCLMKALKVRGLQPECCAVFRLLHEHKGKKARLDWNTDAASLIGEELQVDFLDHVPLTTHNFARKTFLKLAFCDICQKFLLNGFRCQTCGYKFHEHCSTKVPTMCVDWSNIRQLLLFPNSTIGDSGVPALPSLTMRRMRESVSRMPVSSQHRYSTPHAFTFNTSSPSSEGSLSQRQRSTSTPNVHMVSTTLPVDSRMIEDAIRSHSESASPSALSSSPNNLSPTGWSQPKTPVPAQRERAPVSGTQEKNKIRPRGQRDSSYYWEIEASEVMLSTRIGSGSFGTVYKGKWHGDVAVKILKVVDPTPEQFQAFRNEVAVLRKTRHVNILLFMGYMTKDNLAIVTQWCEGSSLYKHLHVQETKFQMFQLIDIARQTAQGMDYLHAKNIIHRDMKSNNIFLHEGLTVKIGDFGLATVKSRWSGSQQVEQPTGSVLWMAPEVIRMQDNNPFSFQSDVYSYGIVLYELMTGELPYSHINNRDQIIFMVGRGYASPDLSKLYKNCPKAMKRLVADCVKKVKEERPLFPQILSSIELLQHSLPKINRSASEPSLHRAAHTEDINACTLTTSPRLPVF
Sequence of B-Raf V600E (P15056 whole entry V600E): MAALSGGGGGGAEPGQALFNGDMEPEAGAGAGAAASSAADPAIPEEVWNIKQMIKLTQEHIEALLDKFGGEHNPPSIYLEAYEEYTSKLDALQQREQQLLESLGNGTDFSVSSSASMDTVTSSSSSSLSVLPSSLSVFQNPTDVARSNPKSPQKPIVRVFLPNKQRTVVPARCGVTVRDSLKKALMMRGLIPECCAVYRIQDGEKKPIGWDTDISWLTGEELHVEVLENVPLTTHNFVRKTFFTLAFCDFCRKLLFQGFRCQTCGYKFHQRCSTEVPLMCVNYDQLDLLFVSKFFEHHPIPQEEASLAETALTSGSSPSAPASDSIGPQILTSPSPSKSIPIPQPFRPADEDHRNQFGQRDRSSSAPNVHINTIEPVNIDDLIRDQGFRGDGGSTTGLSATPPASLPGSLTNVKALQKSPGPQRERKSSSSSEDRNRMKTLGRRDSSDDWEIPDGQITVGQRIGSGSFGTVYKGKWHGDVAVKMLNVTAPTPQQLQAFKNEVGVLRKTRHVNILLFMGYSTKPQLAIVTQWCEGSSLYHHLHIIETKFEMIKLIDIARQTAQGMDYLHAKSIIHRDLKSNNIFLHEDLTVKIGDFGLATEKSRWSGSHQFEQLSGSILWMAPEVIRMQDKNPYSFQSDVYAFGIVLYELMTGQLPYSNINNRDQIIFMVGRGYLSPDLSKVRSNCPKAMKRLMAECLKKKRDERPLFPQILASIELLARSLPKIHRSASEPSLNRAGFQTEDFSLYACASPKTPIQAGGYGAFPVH
Sequence of Btk (Q06187 whole entry): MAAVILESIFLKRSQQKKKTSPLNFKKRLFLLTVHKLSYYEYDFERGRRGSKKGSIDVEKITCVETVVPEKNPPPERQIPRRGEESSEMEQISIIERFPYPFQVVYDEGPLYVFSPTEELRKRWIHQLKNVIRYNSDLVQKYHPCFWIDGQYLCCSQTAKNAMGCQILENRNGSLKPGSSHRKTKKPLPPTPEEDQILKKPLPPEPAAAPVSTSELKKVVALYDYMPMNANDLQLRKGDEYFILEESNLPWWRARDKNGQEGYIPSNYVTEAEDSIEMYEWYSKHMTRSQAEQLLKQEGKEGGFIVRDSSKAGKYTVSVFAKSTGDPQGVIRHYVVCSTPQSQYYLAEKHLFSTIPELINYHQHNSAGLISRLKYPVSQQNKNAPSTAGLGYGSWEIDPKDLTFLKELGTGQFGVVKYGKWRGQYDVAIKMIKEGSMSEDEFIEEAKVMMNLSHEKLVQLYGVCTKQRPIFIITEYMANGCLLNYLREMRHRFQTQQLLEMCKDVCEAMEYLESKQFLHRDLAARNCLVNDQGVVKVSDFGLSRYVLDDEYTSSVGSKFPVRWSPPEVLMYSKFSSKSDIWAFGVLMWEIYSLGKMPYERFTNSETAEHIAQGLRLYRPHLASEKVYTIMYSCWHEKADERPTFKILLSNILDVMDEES
Sequence of Kit (P10721 26-976): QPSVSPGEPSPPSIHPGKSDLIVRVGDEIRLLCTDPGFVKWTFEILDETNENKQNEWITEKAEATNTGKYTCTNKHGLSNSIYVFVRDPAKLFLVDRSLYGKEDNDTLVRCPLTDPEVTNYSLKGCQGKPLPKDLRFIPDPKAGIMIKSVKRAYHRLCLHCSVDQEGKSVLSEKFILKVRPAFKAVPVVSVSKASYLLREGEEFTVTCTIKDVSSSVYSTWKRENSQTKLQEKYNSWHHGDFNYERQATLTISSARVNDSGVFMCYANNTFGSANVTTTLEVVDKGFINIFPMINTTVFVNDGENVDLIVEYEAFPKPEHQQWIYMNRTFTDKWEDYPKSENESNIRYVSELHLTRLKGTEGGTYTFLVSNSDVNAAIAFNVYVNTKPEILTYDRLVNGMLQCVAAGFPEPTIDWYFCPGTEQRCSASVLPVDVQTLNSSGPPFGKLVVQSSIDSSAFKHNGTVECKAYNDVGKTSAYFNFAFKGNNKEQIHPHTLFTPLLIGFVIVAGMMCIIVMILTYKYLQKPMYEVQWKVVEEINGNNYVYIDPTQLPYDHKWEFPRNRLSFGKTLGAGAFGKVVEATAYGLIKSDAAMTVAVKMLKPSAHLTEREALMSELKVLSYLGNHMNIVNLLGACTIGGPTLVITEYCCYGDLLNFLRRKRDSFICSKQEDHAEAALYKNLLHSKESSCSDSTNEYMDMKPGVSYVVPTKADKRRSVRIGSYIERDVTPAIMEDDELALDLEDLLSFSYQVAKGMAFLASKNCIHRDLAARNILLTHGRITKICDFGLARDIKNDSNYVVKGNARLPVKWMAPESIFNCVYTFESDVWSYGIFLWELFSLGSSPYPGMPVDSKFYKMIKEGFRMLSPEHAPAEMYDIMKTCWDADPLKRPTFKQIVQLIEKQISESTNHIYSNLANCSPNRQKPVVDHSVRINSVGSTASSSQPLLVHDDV
Sequence of B-Raf (P15056 whole entry): as the sequence (P15056 whole entry V600E) above, with E600V counted along it

N#Cc1cnc2[nH]cc(C(=O)c3cccc(NS(=O)(=O)c4ccccc4F)c3F)c2c1 [P-2051, N-[3-(5-Cyano-1H-pyrrolo[2,3-b]pyridine-3-carbonyl)-2-fluoro-phenyl]-2-fluoro-benzenesulfonamide]
not listed: Fms | A-Raf | MAP4K4
≤ 10 µM: all other assays above

N#Cc1cnc2[nH]cc(C(=O)c3cccc(NS(=O)(=O)c4cc(F)ccc4F)c3F)c2c1 [P-2052, N-[3-(5-Cyano-1H-pyrrolo[2,3-b]pyridine-3-carbonyl)-2-fluoro-phenyl]-2,5-difluoro-benzenesulfonamide]
not listed: Fms | A-Raf | MAP4K4
≤ 10 µM: all other assays above

N#Cc1cnc2[nH]cc(C(=O)c3cccc(NS(=O)(=O)c4cccc(F)c4)c3F)c2c1 [P-2053, N-[3-(5-Cyano-1H-pyrrolo[2,3-b]pyridine-3-carbonyl)-2-fluoro-phenyl]-3-fluoro-benzenesulfonamide]
≤ 10 µM: B-Raf V600E | B-Raf | Src | C-Raf | TEC | Btk

N#Cc1cnc2[nH]cc(C(=O)c3cccc(NS(=O)(=O)c4c(F)cccc4F)c3F)c2c1 [P-2054, N-[3-(5-Cyano-1H-pyrrolo[2,3-b]pyridine-3-carbonyl)-2-fluoro-phenyl]-2,6-difluoro-benzenesulfonamide]
not listed: Fms | A-Raf | MAP4K4
≤ 10 µM: all other assays above

N#Cc1cnc2[nH]cc(C(=O)c3cccc(NS(=O)(=O)c4ccccn4)c3F)c2c1 [P-2087, Pyridine-2-sulfonic acid [3-(5-cyano-1H-pyrrolo[2,3-b]pyridine-3-carbonyl)-2-fluoro-phenyl]-amide]
≤ 10 µM: B-Raf V600E | B-Raf | Src | C-Raf | TEC | Btk

O=C(c1cc(NS(=O)(=O)c2cccc(F)c2)ccc1F)c1c[nH]c2ncccc12 [P-2120, 3-Fluoro-N-[4-fluoro-3-(1H-pyrrolo[2,3-b]pyridine-3-carbonyl)-phenyl]-benzenesulfonamide]
≤ 10 µM: B-Raf V600E | Fms | Kit | TEC | Kdr | Btk

Cn1cc(-c2cnc3[nH]cc(C(=O)c4cccc(NS(=O)(=O)c5ccc(Cl)cc5)c4)c3c2)cn1 [P-2129, 4-Chloro-N-{3-[5-(1-methyl-1H-pyrazol-4-yl)-1H-pyrrolo[2,3-b]pyridine-3-carbonyl]-phenyl}-benzenesulfonamide]
≤ 10 µM: B-Raf V600E | Fms | Kit | TEC | Kdr | Btk

CCCS(=O)(=O)Nc1ccc(F)c(C(=O)c2c[nH]c3ncc(-c4ccc(NS(C)(=O)=O)cc4)cc23)c1F [P-2165, Propane-1-sulfonic acid {2,4-difluoro-3-[5-(4-methanesulfonylamino-phenyl)-1H-pyrrolo[2,3-b]pyridine-3-carbonyl]-phenyl}-amide]
not listed: TEC | MAP4K4
≤ 10 µM: all other assays above

CCCS(=O)(=O)Nc1ccc(F)c(C(=O)c2c[nH]c3ncc(-c4ccc(OCCCN5CCCC5)nc4)cc23)c1F [P-2235, Propane-1-sulfonic acid (2,4-difluoro-3-{5-[6-(3-pyrrolidin-1-yl-propoxy)-pyridin-3-yl]-1H-pyrrolo[2,3-b]pyridine-3-carbonyl}-phenyl)-amide]
not listed: TEC
≤ 10 µM: all other assays above

COc1ncc(-c2cnc3[nH]cc(C(=O)c4c(F)ccc(NS(=O)(=O)N5CCCC5)c4F)c3c2)cn1 [P-2400]
not listed: Fms | A-Raf | MAP4K4
≤ 10 µM: all other assays above

N#Cc1cnc2[nH]cc(C(=O)c3cccc(NS(=O)(=O)CC(F)(F)F)c3F)c2c1 [P-2414, 2,2,2-Trifluoro-ethanesulfonic acid [3-(5-cyano-1H-pyrrolo[2,3-b]pyridine-3-carbonyl)-2-fluoro-phenyl]-amide]
≤ 10 µM: B-Raf V600E | B-Raf | Src | C-Raf | TEC | Btk

N#Cc1cnc2[nH]cc(C(=O)c3cccc(NS(=O)(=O)N4CCCC4)c3F)c2c1 [P-2420, Pyrrolidine-1-sulfonic acid [3-(5-cyano-1H-pyrrolo[2,3-b]pyridine-3-carbonyl)-2-fluoro-phenyl]-amide]
≤ 10 µM: B-Raf V600E | B-Raf | C-Raf | A-Raf | Btk

O=C(c1cc(NS(=O)(=O)N2CCCCC2)ccc1F)c1c[nH]c2ncccc12 [P-2440, Piperidine-1-sulfonic acid [4-fluoro-3-(1H-pyrrolo[2,3-b]pyridine-3-carbonyl)-phenyl]-amide]
≤ 10 µM: Fms | TEC | Btk

O=C(c1cccc(NS(=O)(=O)N2CCCCC2)c1)c1c[nH]c2ncc(Cl)cc12 [P-2471, Piperidine-1-sulfonic acid [3-(5-chloro-1H-pyrrolo[2,3-b]pyridine-3-carbonyl)-phenyl]-amide]
≤ 10 µM: Fms | Kit | TEC | Kdr | Btk
